ChEMBL document CHEMBL3638916, “Substituted 3-arylsulfonyl-pyrazolo[1,5-A]pyrimidines, serotonin 5-HT6 receptor antagonists and methods for the production and use thereof” (2013)

Legend:
[1] = biological target: T1, 5-hydroxytryptamine receptor 6 (Homo sapiens, UniProt P50406); test: Mol. Pharmacol. 43:320-327, 1993].
[2] = biological target: T1, 5-hydroxytryptamine receptor 6; test: Functional Assay: Determination of antagonistic activity of compounds of the general formula 1 towards 5-HT6 receptors. Compounds of the general formula 1 were tested for their ability to prevent 5-HT6 receptors activation by serotonin. HEK 293 cells (cells of human embryo's kidney) with artificially expressed 5-HT6 receptor, activation of which by serotonin leads to increasing the concentration of intracellular cAMP, were used. The level of intracellular cAMP was determined using reagent kit LANCE cAMP (PerkinElmer) according to the method described by the manufacturer of the kit [http://las.perkinelmer.com/content/Manuals/MAN_LANCEcAMP384KitUser.pdf]. Effectiveness of the compounds was estimated by their ability to reduce the level of intracellular cAMP induced by serotonin. Table 4 presents IC50 values for the compounds of general formula 1 in the setting of functional assay for serotonin 5-HT6 receptor inhibition. The data given testify their moderate or high antagonistic activity.; format: cell-based

T1 sequence (P50406 whole entry): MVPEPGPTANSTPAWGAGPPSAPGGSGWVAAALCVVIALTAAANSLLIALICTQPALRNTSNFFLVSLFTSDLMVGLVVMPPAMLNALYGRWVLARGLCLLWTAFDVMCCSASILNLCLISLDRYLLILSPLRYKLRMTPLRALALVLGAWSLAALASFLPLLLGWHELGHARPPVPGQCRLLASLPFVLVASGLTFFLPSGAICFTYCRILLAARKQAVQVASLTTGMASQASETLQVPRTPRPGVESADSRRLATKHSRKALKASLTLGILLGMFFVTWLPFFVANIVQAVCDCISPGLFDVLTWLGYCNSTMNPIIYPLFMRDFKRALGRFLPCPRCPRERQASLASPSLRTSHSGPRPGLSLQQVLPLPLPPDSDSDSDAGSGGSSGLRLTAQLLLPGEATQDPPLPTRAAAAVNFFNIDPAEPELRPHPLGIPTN

For `CSc1nn2c(C)c(Br)c(C)nc2c1S(=O)(=O)c1ccccc1`, the IC50 [1] was 0.05 µM and the IC50 [2] was 8.4 µM.
